Data reported in patent publication US20110172296A1, “MODULATION OF TRANSFORMING GROWTH FACTOR-BETA 1 EXPRESSION” (priority 2010, published 2011).
“And” between values parts separate entries of the source, which are not always exact repeats. Equal values may be shown once. e = 2'-O-(2-methoxyethyl) (MOE); d = 2'-deoxy (DNA)

Columns and labels:
human TGF-beta1 mRNA [1] = assay: Antisense inhibition of human TGF-beta1 mRNA in HuVEC cells, single 10 nM dose, Lipofectamine 2000 (Example 2); type: cell-based
Method in brief: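 Percent inhibition relative to untreated controls, from qRT-PCR of mRNA corrected for total RNA (RIBOGREEN). Cells were exposed 4 h to 10 nM phosphorothioate 2-13-5 MOE gapmers with Lipofectamine 2000 at 5,000 cells/well. RNA was harvested after roughly 24 h recovery.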

human TGF-beta1 mRNA [2] = assay: Dose-dependent antisense inhibition of human TGF-beta1 in HuVEC cells, Lipofectamine 2000, 0.9375-30 nM (Example 3); type: cell-based; conditions: Lipofectamine 2000
Method in brief: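 HuVEC cells, 5,000/well, were transfected with Lipofectamine 2000 and 0.9375-30 nM antisense oligonucleotide for 4 h, then recovered about 16 h. TGF-beta1 mRNA was quantified by real-time PCR (primer probe set RTS 2980), normalised to RIBOGREEN total RNA, and expressed as percent inhibition versus untreated cells.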

human TGF-beta1 mRNA [3] = assay: Dose-dependent antisense inhibition of human TGF-beta1 in HuVEC cells, Lipofectamine 2000, 0.3292-80 nM, comparison with oligos of U.S. Pat. No. 6,436,909 (Example 4); type: cell-based
Procedure: The dose-dependent antisense inhibition potential of these gapmers was compared with that of Oligo IDs 104992 and 1138498 from U.S. Pat. No. 6,436,909. Cells were plated at a density of 5,000 cells per well and transfected using Lipofectamine™ 2000 reagent with 0.3292 nM, 0.9877 nM, 2.963 nM, 8.8889 nM, 26.6667 nM, and 80 nM concentrations of antisense oligonucleotide for 4 hours, as specified in Table 4. After a recovery period of approximately 16 hours, RNA was isolated from the cells and TGF-beta1 mRNA levels were measured by quantitative real-time PCR. Human TGF-beta1 primer probe set RTS 2980 was used to measure mRNA levels. TGF-beta1 mRNA levels were adjusted according to total RNA content, as measured by RIBOGREEN®. Results are presented as percent inhibition of TGF-beta1, relative to untreated control cells. […] All the antisense oligonucleotides in Table 4 target human TGF-beta1 mRNA (SEQ ID NO: 1).

human TGF-beta1 mRNA [4] = assay: Dose-dependent confirmation of antisense inhibition of human TGF-beta1 in HuVEC cells after large-scale synthesis, Lipofectamine 2000, 0.007-15 nM (Example 5); type: cell-based; conditions: for percent inhibition of TGF-beta1: Lipofectamine 2000
Procedure: Cells were plated at a density of 5,000 cells per well and transfected using Lipofectamine™ 2000 reagent with 0.007 nM, 0.021 nM, 0.062 nM, 0.185 nM, 0.556 nM, 1.667 nM, 5 nM, and 15 nM concentrations of antisense oligonucleotide for 4 hours, as specified in Table 5. After a recovery period of approximately 16 hours, RNA was isolated from the cells and TGF-beta1 mRNA levels were measured by quantitative real-time PCR. Human TGF-beta1 primer probe set RTS 2980 was used to measure mRNA levels. TGF-beta1 mRNA levels were adjusted according to total RNA content, as measured by RIBOGREEN®. Results are presented as percent inhibition of TGF-beta1, relative to untreated control cells.

BALB/c mice [5] = assay: Tolerability in BALB/c mice: liver, kidney and spleen weights (Example 8); type: in vivo, mouse
Procedure: The mice were sacrificed 2 days after the last administration and liver, spleen and kidney weights were measured. Plasma transaminase levels were also evaluated.
The weights of liver, kidney and spleen of the mice were measured after 4 weeks and liver weights are presented in Table 10 as a percentage change compared to the corresponding weights in the PBS control. The percentage changes in kidney and spleen weight in the treated mice compared to the PBS control were negligible and are not shown.

murine TGF-beta1 = assay: Inhibition of murine TGF-beta1 expression (data not shown); design: species or system mouse
BALB/c mice [6] = conditions: mouse, in vivo
Procedure: (§1) These gapmer oligonucleotides were designed to target human TGF-beta1 and have varying degrees of mismatch with murine TGF-beta1 sequence, as shown in Table 1. Oligo ID Nos. 413982 and 414040 have greater than 3 mismatches to the murine TGF-beta1 sequence. Oligo ID No. 414035 has 2 mismatches to murine TGF-beta1. Oligo ID No. 414036 has no mismatches to murine TGF-beta1.
(§2) BALB/c mice were injected with 25 mg/kg or 50 mg/kg of Oligo ID Nos. 413982, 414035, 414036, or 414040 twice a week for 4 weeks. A control group of mice was injected with phosphate buffered saline (PBS) twice a week for 4 weeks. Plasma transaminase levels were evaluated bi-weekly.
(§3) To evaluate the impact of TGF-beta1 antisense oligonucleotides on the hepatic function of mice described above, plasma concentrations of transaminases were measured using an automated clinical chemistry analyzer (Hitachi Olympus AU400e, Melville, N.Y.).

BALB/c mice [7] = assay: Tolerability in BALB/c mice: plasma transaminases ALT and AST (Example 7); conditions: for aspartate transaminase levels: plasma
Procedure: as §1, §2, §3

414036 (antisense GTGTCCTTAAATACAGCCCC; sugars from the 5' end e2 d13 e5, backbone and methylation of C not given here) [compound 414036]
% inhibition (human TGF-beta1 mRNA [1]; 10 nM oligonucleotide, HuVEC, relative to untreated control cells, gapmers targeted to SEQ ID NO: 1): 87% | inhibition of a TGF-beta1 mRNA (human TGF-beta1 mRNA [1]; threshold lists of Oligo IDs, 10 nM): 60% and 65% and 70% and 75% and 80% and 85% | percent inhibition of TGF-beta1 (human TGF-beta1 mRNA [2]; 0.9375 nM): 56% | percent inhibition of TGF-beta1 (human TGF-beta1 mRNA [2]; 1.875 nM): 75% | percent inhibition of TGF-beta1 (human TGF-beta1 mRNA [2]; 3.75 nM): 86% | percent inhibition of TGF-beta1 (human TGF-beta1 mRNA [2]; 7.5 nM): 93% | percent inhibition of TGF-beta1 (human TGF-beta1 mRNA [2]; 15 nM): 95% | percent inhibition of TGF-beta1 (human TGF-beta1 mRNA [2]; 30 nM): 93% | percent inhibition of TGF-beta1 (human TGF-beta1 mRNA [3]; 0.3292 nM): 70% | percent inhibition of TGF-beta1 (human TGF-beta1 mRNA [3]; 0.9877 nM): 83% | percent inhibition of TGF-beta1 (human TGF-beta1 mRNA [3]; 2.963 nM): 91% | percent inhibition of TGF-beta1 (human TGF-beta1 mRNA [3]; 8.8889 nM): 93% | percent inhibition of TGF-beta1 (human TGF-beta1 mRNA [3]; 26.6667 nM): 92% | percent inhibition of TGF-beta1 (human TGF-beta1 mRNA [3]; 80.0 nM): 89% | percent inhibition of TGF-beta1 (human TGF-beta1 mRNA [4]; 0.007 nM): 5% | percent inhibition of TGF-beta1 (human TGF-beta1 mRNA [4]; 0.021 nM): 26% | percent inhibition of TGF-beta1 (human TGF-beta1 mRNA [4]; 0.062 nM): 41% | percent inhibition of TGF-beta1 (human TGF-beta1 mRNA [4]; 0.185 nM): 58% | percent inhibition of TGF-beta1 (human TGF-beta1 mRNA [4]; 0.556 nM): 73% | percent inhibition of TGF-beta1 (human TGF-beta1 mRNA [4]; 1.667 nM): 84% | percent inhibition of TGF-beta1 (human TGF-beta1 mRNA [4]; 5 nM): 91% | percent inhibition of TGF-beta1 (human TGF-beta1 mRNA [4]; 15 nM): 90% | IC50 (human TGF-beta1 mRNA [4]; Lipofectamine 2000, Example 5): 0.15 nM | Liver % Weight change relative to PBS control (BALB/c mice [5]; 25 mg/kg twice a week for 4 weeks): +17% | Liver % Weight change relative to PBS control (BALB/c mice [5]; 50 mg/kg twice a week for 4 weeks): +35% | increase in liver weight (BALB/c mice [5]; 25 or 50 mg/kg twice a week for 4 weeks, vs PBS control): ≤ 35% | murine TGF-beta1 expression (murine TGF-beta1): inhibits | tolerability compared to Oligo ID 105204 (BALB/c mice [6]): improved tolerability | alanine transaminase levels (BALB/c mice [7]; 25 mg/kg twice a week, Week 2): 70 IU/L | alanine transaminase levels (BALB/c mice [7]; 25 mg/kg twice a week, Week 4): 61 IU/L | aspartate transaminase levels (BALB/c mice [7]; 25 mg/kg twice a week, Week 2): 119 IU/L | aspartate transaminase levels (BALB/c mice [7]; 25 mg/kg twice a week, Week 4): 148 IU/L | alanine transaminase levels (BALB/c mice [7]; 50 mg/kg twice a week, Week 2): 99 IU/L | alanine transaminase levels (BALB/c mice [7]; 50 mg/kg twice a week, Week 4): 190 IU/L | aspartate transaminase levels (BALB/c mice [7]; 50 mg/kg twice a week, Week 2): 183 IU/L | aspartate transaminase levels (BALB/c mice [7]; 50 mg/kg twice a week, Week 4): 467 IU/L | increase in ALT/AST (BALB/c mice [7]; 25 or 50 mg/kg twice a week for four weeks): < 8 fold
